Source: ChEMBL document CHEMBL1148941, “A new glucosyl feruloyl quinic acid as a potential marker for roots and rhizomes of goldenseal, Hydrastis canadensis” (2004)

Tested on: Staphylococcus aureus
Experiment: Antimicrobial activity against methicillin-resistant Staphylococcus aureus 1126 after 24 hrs
Assay type: functional

SMILES: COc1ccc2cc3[n+](cc2c1OC)CCc1cc2c(cc1-3)OCO2.[Cl-] [BERBERINE CHLORIDE]
- MIC: 60 µg/mL

SMILES: COc1cc(/C=C/C(=O)O[C@@H]2C[C@](O)(C(=O)O)C[C@@H](O)[C@H]2O)ccc1O[C@@H]1O[C@H](CO)[C@@H](O)[C@H](O)[C@H]1O
- MIC: > 1000 µg/mL
